ChEMBL document CHEMBL3885861, “Open TG-GATES”

Organism: Rattus norvegicus
Experiment: Open TG-GATES - Regimen: Single
Assay type: toxicity, organism-based, Sprague-Dawley
Parameters: regimen Single, gender Male, age 6 weeks
Settings: in vivo, po, 100 mg/kg, route gavage, dose level Low; for APTT / Bas / Eos / Fbg / Hb / Ht / Lym / MCH / MCHC / MCV / Mono / Neu / PT / Plat / RBC / Ret / WBC: tissue Blood; for KIDNEY_L / KIDNEY_R / KIDNEY_TOTAL: tissue Kidney; for LIVER: tissue Liver; for A/G / ALP / ALT / AST / BUN / CRE / Ca / Cl / DBIL / GLC / IP / K / LDH / Na / PL / RALB / TBIL / TC / TG / TP / gamma-GTP: tissue Plasma

Compound: CN/C(=N/CCSCc1nc[nH]c1C)NC#N [CIMETIDINE]
- TERMINAL_BW (3 h): 214.5 g
- APTT (3 h): 18.3 s
- Bas (3 h): 0%
- Eos (3 h): 1%
- Fbg (3 h): 220.4 mg/dL
- Hb (3 h): 13.1 g/dL
- Ht (3 h): 38.2%
- Lym (3 h): 78.6%
- MCH (3 h): 21.9 pg
- MCHC (3 h): 34.2%
- MCV (3 h): 64.1 fL
- Mono (3 h): 2.8%
- Neu (3 h): 16.8%
- PT (3 h): 12.8 s
- Plat (3 h): 127.8 x10_4/uL
- RBC (3 h): 596.2 x10_4/ul
- Ret (3 h): 8.3%
- WBC (3 h): 109.3 x10_2/uL
- KIDNEY_L (3 h): 1 g
- KIDNEY_R (3 h): 1 g
- KIDNEY_TOTAL (3 h): 2 g
- LIVER (3 h): 10 g
- A/G (3 h): 1.7
- ALP (3 h): 1167.2 IU/L
- ALT (3 h): 39.4 IU/L
- AST (3 h): 70.2 IU/L
- BUN (3 h): 9.6 mg/dL
- CRE (3 h): 0.4 mg/dL
- Ca (3 h): 10.6 mg/dL
- Cl (3 h): 102.6 meq/L
- DBIL (3 h): 0.072 mg/dL
- GLC (3 h): 195 mg/dL
- IP (3 h): 9.5 mg/dL
- K (3 h): 4 meq/L
- LDH (3 h): 154.4 IU/L
- Na (3 h): 140.6 meq/L
- PL (3 h): 140.6 mg/dL
- RALB (3 h): 3.4 g/dL
- TBIL (3 h): 0.1 mg/dL
- TC (3 h): 75.2 mg/dL
- TG (3 h): 47.4 mg/dL
- TP (3 h): 5.5 g/dL
- gamma-GTP (3 h): 0.6 IU/L
- TERMINAL_BW (6 h): 209.9 g
- APTT (6 h): 18.8 s
- Bas (6 h): 0%
- Eos (6 h): 1%
- Fbg (6 h): 216.8 mg/dL
- Hb (6 h): 13.2 g/dL
- Ht (6 h): 38%
- Lym (6 h): 77.6%
- MCH (6 h): 22.2 pg
- MCHC (6 h): 34.8%
- MCV (6 h): 63.7 fL
- Mono (6 h): 2.8%
- Neu (6 h): 17.6%
- PT (6 h): 13.1 s
- Plat (6 h): 135.7 x10_4/uL
- RBC (6 h): 596.8 x10_4/ul
- Ret (6 h): 7.8%
- WBC (6 h): 98.4 x10_2/uL
- KIDNEY_L (6 h): 1 g
- KIDNEY_R (6 h): 1 g
- KIDNEY_TOTAL (6 h): 1.9 g
- LIVER (6 h): 9.7 g
- A/G (6 h): 1.6
- ALP (6 h): 885 IU/L
- ALT (6 h): 34.4 IU/L
- AST (6 h): 64 IU/L
- BUN (6 h): 9.6 mg/dL
- CRE (6 h): 0.4 mg/dL
- Ca (6 h): 10.6 mg/dL
- Cl (6 h): 102.4 meq/L
- DBIL (6 h): 0.07 mg/dL
- GLC (6 h): 194.6 mg/dL
- IP (6 h): 9.6 mg/dL
- K (6 h): 3.7 meq/L
- LDH (6 h): 180 IU/L
- Na (6 h): 141.4 meq/L
- PL (6 h): 138 mg/dL
- RALB (6 h): 3.4 g/dL
- TBIL (6 h): 0.1 mg/dL
- TC (6 h): 70.6 mg/dL
- TG (6 h): 61.4 mg/dL
- TP (6 h): 5.5 g/dL
- gamma-GTP (6 h): 1.8 IU/L
- TERMINAL_BW (9 h): 209.3 g
- APTT (9 h): 20.3 s
- Bas (9 h): 0%
- Eos (9 h): 1%
- Fbg (9 h): 246 mg/dL
- Hb (9 h): 12.9 g/dL
- Ht (9 h): 36.9%
- Lym (9 h): 74%
- MCH (9 h): 22.4 pg
- MCHC (9 h): 34.9%
- MCV (9 h): 64.3 fL
- Mono (9 h): 2.4%
- Neu (9 h): 21%
- PT (9 h): 13.7 s
- Plat (9 h): 128.2 x10_4/uL
- RBC (9 h): 575.2 x10_4/ul
- Ret (9 h): 8.7%
- WBC (9 h): 88 x10_2/uL
- KIDNEY_L (9 h): 1 g
- KIDNEY_R (9 h): 1 g
- KIDNEY_TOTAL (9 h): 1.9 g
- LIVER (9 h): 9.2 g
- A/G (9 h): 1.6
- ALP (9 h): 890.8 IU/L
- ALT (9 h): 31.4 IU/L
- AST (9 h): 62 IU/L
- BUN (9 h): 11.6 mg/dL
- CRE (9 h): 0.3 mg/dL
- Ca (9 h): 10.5 mg/dL
- Cl (9 h): 103.4 meq/L
- DBIL (9 h): 0.076 mg/dL
- GLC (9 h): 194.4 mg/dL
- IP (9 h): 10 mg/dL
- K (9 h): 3.9 meq/L
- LDH (9 h): 137.4 IU/L
- Na (9 h): 141.4 meq/L
- PL (9 h): 135 mg/dL
- RALB (9 h): 3.4 g/dL
- TBIL (9 h): 0.1 mg/dL
- TC (9 h): 74.4 mg/dL
- TG (9 h): 42.8 mg/dL
- TP (9 h): 5.5 g/dL
- gamma-GTP (9 h): 1.2 IU/L
- TERMINAL_BW (24 h): 225.6 g
- APTT (24 h): 19.4 s
- Bas (24 h): 0%
- Eos (24 h): 1%
- Fbg (24 h): 227.2 mg/dL
- Hb (24 h): 12.7 g/dL
- Ht (24 h): 37.8%
- Lym (24 h): 79.8%
- MCH (24 h): 21.5 pg
- MCHC (24 h): 33.7%
- MCV (24 h): 63.7 fL
- Mono (24 h): 3.2%
- Neu (24 h): 14.8%
- PT (24 h): 12.8 s
- Plat (24 h): 135 x10_4/uL
- RBC (24 h): 593.4 x10_4/ul
- Ret (24 h): 7.2%
- WBC (24 h): 109.1 x10_2/uL
- KIDNEY_L (24 h): 1 g
- KIDNEY_R (24 h): 1.1 g
- KIDNEY_TOTAL (24 h): 2.1 g
- LIVER (24 h): 11.2 g
- A/G (24 h): 1.7
- ALP (24 h): 1060 IU/L
- ALT (24 h): 35.2 IU/L
- AST (24 h): 64.4 IU/L
- BUN (24 h): 15.8 mg/dL
- CRE (24 h): 0.4 mg/dL
- Ca (24 h): 10.8 mg/dL
- Cl (24 h): 102.2 meq/L
- DBIL (24 h): 0.1 mg/dL
- GLC (24 h): 199.4 mg/dL
- IP (24 h): 6.9 mg/dL
- K (24 h): 4.2 meq/L
- LDH (24 h): 155.6 IU/L
- Na (24 h): 140 meq/L
- PL (24 h): 143.8 mg/dL
- RALB (24 h): 3.4 g/dL
- TBIL (24 h): 0.2 mg/dL
- TC (24 h): 73.2 mg/dL
- TG (24 h): 98.8 mg/dL
- TP (24 h): 5.5 g/dL
- gamma-GTP (24 h): 1.6 IU/L
